The structures appear in SMILES notation.

Test [1] has as its system Baloxavir-resistant influenza A/PR/8/34 (H1N1) (PA I38T). It counts as cell-based, Influenza A virus. To be noted: read-out: EC50 (mean ± SD).
For test [2], the system named is influenza A virus with PA I38T substitution. The conditions noted are these: cited from earlier work.
The test system of test [3] is Oseltamivir-resistant influenza virus strain A/Weiss/43 (H1N1)-4. Kind of test: microbe, parasite or virus in culture. It is filed as cell-based. To be noted: unidentified influenza virus, H1N1, MDCK, read-out: EC50 (mean ± SD).
Test [4] relates to Oseltamivir-resistant influenza virus strain A/Weiss/43 (H1N1)-5. Kind of test: microbe, parasite or virus in culture. It counts as cell-based. To be noted: unidentified influenza virus, H1N1, MDCK, read-out: EC50 (mean ± SD).

On to `O=C1c2c(O)c(=O)ccn2N([C@@H]2c3ccccc3SCc3c2ccc(F)c3F)[C@@H]2COCCN12` [Baloxavir], for which, in test [1], the EC50 (as a rule, the concentration that produces a half-maximal response) was 89.4 ± 11.9 nM. In addition, the “EC50 change due to PA I38T substitution” value in test [2] was 30-50 fold.

For `CCOC(=O)C1=C[C@@H](OC(CC)CC)[C@H](NC(C)=O)[C@@H](N)C1` [Oseltamivir], the EC50 in test [3] and in test [4] was > 100000 nM in each case.

Take `O=C(O)[C@H]1C2CCC(CC2)[C@@H]1Nc1nc(-c2c[nH]c3ncc(F)cc23)ncc1F` [VX-787, reference compound]: the EC50 is 0.234 ± 0.094 nM in test [3], 0.216 ± 0.053 nM in test [4] and 0.434 ± 0.052 nM in test [1].

For `O=C(O)[C@H]1C2CCC(CC2)[C@@H]1Nc1nc(-c2n[nH]c3ncc(F)cc23)nc(C2CC2)c1F` [ZSP1273], the EC50 amounted to 0.014 ± 0.006 nM in test [3], 0.017 ± 0.004 nM in test [4] and 0.028 ± 0.013 nM in test [1].

(Values after paper PMC10056986 (Pharmaceuticals, 2023).)
